This note sets out measurements from paper PMC6216040, “Repurposing of an old drug: In vitro and in vivo efficacies of buparvaquone against Echinococcus multilocularis” (International Journal for Parasitology: Drugs and Drug …, 2018).

For this assay, the system named is E. multilocularis metacestodes. In words: PGI-assay: drug-induced damage on in vitro cultured metacestodes (Pathogen Box screening cascade and EC50). In kind it is cell-based, Echinococcus multilocularis. The conditions noted are these: for PGI release, % of the Tx-100 control, 5d / PGI release, % of the Tx-100 control, 12d: 10 µM, singlets; for PGI release, % of the Tx-100 control, 5d / PGI release, % of Tx-100 control, average, 5d: 5 days of incubation; for PGI release, % of the Tx-100 control, 12d / PGI release, % of Tx-100 control, average, 12d: 12 days of incubation; for PGI release, % of Tx-100 control, average, 5d / PGI release, % of Tx-100 control, average, 12d: confirmatory screening at 10 µM in triplicates, values as % of Tx-100 control.

`N#CCN(CCCCN1CCN(c2ccc(F)cc2)CC1)C(=O)OCc1ccccc1` [MMV675997]: the “PGI release, % of the Tx-100 control, 5d” value is recorded as -0.27% and the “PGI release, % of the Tx-100 control, 12d” value is -1.46%.
For `COc1ccc(C(=N)N)cc1-c1cn(-c2ccc(C(=N)N)cc2)nn1` [MMV675998] the same measures were -0.22% and 0.24%.
As to `O=C(Nc1c(O)cccc1-c1nc2c(C(=O)O)cccc2o1)c1cc(-c2ccccc2)on1` [MMV676008], the “PGI release, % of the Tx-100 control, 5d” value is reported as -0.73% and the “PGI release, % of the Tx-100 control, 12d” value is listed as -0.73%.
For the molecule `Clc1ccc(Cl)c(CO[C@H]2CCCC[C@@H]2n2ccnc2)c1` [MMV676048], the “PGI release, % of the Tx-100 control, 5d” value turned out to be 1.62% and the “PGI release, % of the Tx-100 control, 12d” value worked out at 0.30%.
On to `CS(=O)(=O)N1CCC(Cn2nc(Cc3cccc4ccccc34)c3c(N)ncnc32)CC1` [MMV676050], for which the “PGI release, % of the Tx-100 control, 5d” value came out at 0.49% and the “PGI release, % of the Tx-100 control, 12d” value worked out at 0.36%.
With `COc1cc(NC(=O)Cc2nn(C)c(=O)c3ccccc23)ccc1Cl` [MMV676053], the “PGI release, % of the Tx-100 control, 5d” value is recorded as -2.85% and the “PGI release, % of the Tx-100 control, 12d” value is given as -1.21%.
With `CC(C)(C)OC(=O)N1CCN(c2cc(-c3ccc(Oc4ccccc4)cc3)n[nH]2)CC1` [MMV676057], the “PGI release, % of the Tx-100 control, 5d” value is recorded as -3.83% and the “PGI release, % of the Tx-100 control, 12d” value amounted to 2.21%.
With `CCCCc1ccc(NC(=O)Nc2ccc(O[C@H]3CCCC[C@@H]3N(C)c3ccccc3)c(F)c2)cc1` [MMV676063], the “PGI release, % of the Tx-100 control, 5d” value turned out to be 2.73%; the “PGI release, % of the Tx-100 control, 12d” value is 76.51%; the “PGI release, % of Tx-100 control, average, 5d” value (shortened to “PGI release, % … average, 5d”) is -1.39%; the “PGI release, % of Tx-100 control, average, 12d” value (from here on “PGI release, % … average, 12d”) was -1.33%.
On to `CC(=O)N(CCN(C(=O)c1ccc(F)cc1)c1ccccc1)c1ccccc1` [MMV676064], for which the “PGI release, % of the Tx-100 control, 5d” value is on record as -0.20% and the “PGI release, % of the Tx-100 control, 12d” value is given as 0.0545%.
In the case of `Clc1cccc(CO[C@H]2CCc3ccccc3[C@@H]2n2ccnn2)c1` [MMV676159], the “PGI release, % of the Tx-100 control, 5d” value is given as -0.04% and the “PGI release, % of the Tx-100 control, 12d” value is -0.65%.
Taken in the same sequence, the figures for `c1ccc(Oc2ccc(-c3cc(CN4CCOCC4)[nH]n3)cc2)cc1` [MMV676161] were -0.68% and -1.33%.
As for `O=C(Nc1ccccc1-c1nc2c(C(=O)O)cccc2o1)c1ccccc1` [MMV676162], the “PGI release, % of the Tx-100 control, 5d” value is reported as 0.15% and the “PGI release, % of the Tx-100 control, 12d” value is reported as 0.13%.
As for `Nc1ncnc2c1c(Cc1cccc3ccccc13)nn2CC1CCNCC1` [MMV676182], the “PGI release, % of the Tx-100 control, 5d” value came to 0.88% and the “PGI release, % of the Tx-100 control, 12d” value is -0.92%.
Turning to `COC(=O)c1cccc2oc(-c3cccc(OC)c3NC(=O)c3cc(-c4ccccc4)on3)nc12` [MMV676186], the “PGI release, % of the Tx-100 control, 5d” value is 1.00% and the “PGI release, % of the Tx-100 control, 12d” value is 13.03%.
In the case of `CC(C)C(Oc1cccc2ccccc12)C(=O)O` (centres unmarked) [MMV676191], the “PGI release, % of the Tx-100 control, 5d” value is -0.44% and the “PGI release, % of the Tx-100 control, 12d” value is given as -4.34%.
As to `O=C(c1ccc(F)cc1)N(CCNc1ccccc1)c1ccccc1` [MMV676204], the “PGI release, % of the Tx-100 control, 5d” value turned out to be 0.89%; the “PGI release, % of the Tx-100 control, 12d” value was 22.26%; the “PGI release, % … average, 5d” value was -0.89%; the “PGI release, % … average, 12d” value is -0.80%.
As to `CN1CCN(c2nccc3nc(-c4ccc(F)c(F)c4)[nH]c23)CC1` [MMV676260], the “PGI release, % of the Tx-100 control, 5d” value is 0.28% and the “PGI release, % of the Tx-100 control, 12d” value was found to be 0.56%.
For `C[C@H](C(N)=O)N1CCCC[C@H]1c1ccc(OCc2cccc(F)c2)cc1` [MMV676269] the same measures were 1.52% and 1.07%.
Taken in the same sequence, the figures for `C[C@H](C(N)=O)N1CCCC[C@@H]1c1ccc(OCc2cccc(F)c2)cc1` [MMV676270] were -0.98% and -0.91%.
Turning to `Cc1c[nH]c(CCNC(=O)c2cc(-c3ccc(Cl)cc3)cs2)n1` [MMV676350], the “PGI release, % of the Tx-100 control, 5d” value is -0.41% and the “PGI release, % of the Tx-100 control, 12d” value amounted to 1.56%.
Consider `Nc1ncc(Br)cc1-c1nc2cc(Cl)cnc2[nH]1` [MMV676358], for which the “PGI release, % of the Tx-100 control, 5d” value is 0.16% and the “PGI release, % of the Tx-100 control, 12d” value is recorded as -0.55%.
`Brc1c(-c2ccc3c(c2)OCO3)nc2ncccn12` [MMV676377]: the “PGI release, % of the Tx-100 control, 5d” value was found to be 0.59% and the “PGI release, % of the Tx-100 control, 12d” value is -0.19%.
On to `COc1cccc(OCC(=O)c2ccc(Br)cc2)c1` [MMV676379], for which the “PGI release, % of the Tx-100 control, 5d” value is given as -3.68% and the “PGI release, % of the Tx-100 control, 12d” value is -3.36%.
For `CC(=O)Nc1ccc(NC(=O)c2cc(-c3cc(Cl)ccc3O)n[nH]2)cc1` [MMV676380] the same measures were -0.62% and -0.39%.
As for `Cn1ncc2c(N3CCOCC3)nc(NCCc3c[nH]c4ccccc34)nc21` [MMV676382], the “PGI release, % of the Tx-100 control, 5d” value is recorded as 0.80% and the “PGI release, % of the Tx-100 control, 12d” value is -0.14%.
As for `CCC(Sc1nc2ccccc2o1)C(=O)Nc1nccs1` (centres unmarked) [MMV676383], the “PGI release, % of the Tx-100 control, 5d” value was 0.61% and the “PGI release, % of the Tx-100 control, 12d” value is listed as 4.85%.
Consider `N#Cc1nc(-c2ccccc2F)oc1NCCc1ccccc1` [MMV676384], for which the “PGI release, % of the Tx-100 control, 5d” value is 0.0223% and the “PGI release, % of the Tx-100 control, 12d” value is given as -0.18%.
Taken in the same sequence, the figures for `Cc1cccc(Cn2ccc(NC(=O)c3ccc4c(c3)OCO4)n2)c1` [MMV676386] were 0.18% and -0.91%.
Take `COc1cccc(-n2nnnc2S(=O)(=O)Cc2ccccc2)c1` [MMV676388]: the “PGI release, % of the Tx-100 control, 5d” value came to 12.00% and the “PGI release, % of the Tx-100 control, 12d” value worked out at 14.67%.
Taken in the same sequence, the figures for `O=C(c1n[nH]c2c1CCCC2)N1CCN(Cc2ccc3c(c2)OCO3)CC1` [MMV676389] were 1.07% and 3.62%.
Taken in the same sequence, the figures for `O=C(Nc1cccnc1)c1c(O)c2cccc3c2n(c1=O)CC3` [MMV676395] were -2.29% and 0.06%.
For the molecule `CCS(=O)(=O)N(Cc1ccco1)Cc1cc2ccc(C)cc2[nH]c1=O` [MMV676398], the “PGI release, % of the Tx-100 control, 5d” value is -0.33% and the “PGI release, % of the Tx-100 control, 12d” value came out at 4.91%.
Consider `c1coc(CNc2nc(N3CCCCC3)nc3ccccc23)c1` [MMV676401], for which the “PGI release, % of the Tx-100 control, 5d” value was -3.33%; the “PGI release, % of the Tx-100 control, 12d” value was 41.40%; the “PGI release, % … average, 5d” value is -0.0357%; the “PGI release, % … average, 12d” value was -0.23%.
Turning to `CC(C)n1ncc2c(C(=O)NCC(c3cccs3)N3CCOCC3)cc(-c3ccccc3)nc21` (centres unmarked) [MMV676406], the “PGI release, % of the Tx-100 control, 5d” value came to 0.95% and the “PGI release, % of the Tx-100 control, 12d” value stood at 2.38%.
For `O=C(COc1cccc(F)c1)Nc1nc(-c2ccccn2)cs1` [MMV676409] the same measures were -3.57% and -0.58%.
For `CC(Oc1ccccc1)C(=O)Nc1nc(-c2ccccn2)cs1` (centres unmarked) [MMV676411], the “PGI release, % of the Tx-100 control, 5d” value is on record as 0.12% and the “PGI release, % of the Tx-100 control, 12d” value is given as 0.11%.
Taken in the same sequence, the figures for `N#Cc1nc(-c2ccccc2)oc1S(=O)(=O)c1ccc(Cl)cc1` [MMV676412] were 0.33% and 0.62%.
Taken in the same sequence, the figures for `Cc1ccc(NC(=O)CC2COc3ccccc3O2)cc1Cl` (centres unmarked) [MMV676431] were -2.82% and 0.24%.
In the case of `Cc1ccc2nc(Cl)c(CNCc3cccs3)cc2c1` [MMV676439], the “PGI release, % of the Tx-100 control, 5d” value was -0.82% and the “PGI release, % of the Tx-100 control, 12d” value is recorded as 3.19%.
Regarding `CC(C)c1ncc(-c2ccncc2)c(C2CCC(CNC(=O)c3cccnc3)CC2)n1` (centres unmarked) [MMV676442], the “PGI release, % of the Tx-100 control, 5d” value is on record as -0.58% and the “PGI release, % of the Tx-100 control, 12d” value is 4.83%.
`O=C(NC1CCCCC1)N1CCN(Cc2ccc3c(c2)OCO3)CC1` [MMV676444]: the “PGI release, % of the Tx-100 control, 5d” value is recorded as -3.25% and the “PGI release, % of the Tx-100 control, 12d” value came to 1.66%.
Taken in the same sequence, the figures for `CCCn1c(CNc2ccccc2O)nc2ccccc21` [MMV676445] were -1.26% and 2.30%.
Consider `CCc1nc2ccccc2n1CC(O)COc1cc(C)ccc1Cl` (centres unmarked) [MMV676449], for which the “PGI release, % of the Tx-100 control, 5d” value worked out at 0.81% and the “PGI release, % of the Tx-100 control, 12d” value is 2.81%.
For `CCOC(=O)c1cc(-c2csc(Nc3c(C)cc(C)cc3C)n2)on1` [MMV676461] the same measures were 0.19% and -0.25%.
Take `NC(CC(=O)c1ccc(Cl)cc1Cl)C(Cl)(Cl)Cl` (centres unmarked) [MMV676468]: the “PGI release, % of the Tx-100 control, 5d” value was -0.27% and the “PGI release, % of the Tx-100 control, 12d” value is recorded as -0.82%.
Taken in the same sequence, the figures for `CCOc1ccc(OCC(=O)Nc2cc(C)cc(C)c2)cc1` [MMV676470] were -0.69% and -0.73%.
With `COc1cccc(OC)c1C(=O)Nc1ccc(Cl)c(-c2nc3ccccc3s2)c1` [MMV676472], the “PGI release, % of the Tx-100 control, 5d” value was 5.75%; the “PGI release, % of the Tx-100 control, 12d” value was 51.73%; the “PGI release, % … average, 5d” value was 0.98%; the “PGI release, % … average, 12d” value amounted to 2.19%.
In the case of `COc1ccccc1OCCCCn1c(C2CC2)nc2ccccc21` [MMV676474], the “PGI release, % of the Tx-100 control, 5d” value worked out at 1.01% and the “PGI release, % of the Tx-100 control, 12d” value is 0.22%.
